Legend:
[1] = tested on: SHR/L-NAME model of hypertension; assay: Vascular stiffness by wire myograph in L-NAME-treated SHRs; type: in vivo, rat; conditions: L-NAME+4μ8c group, 18 days, maximally relaxed vessels
Procedure: 12-14 week old male SHRs were randomized to receive vehicle, L-NAME (50 mg/L) or L-NAME and 4μ8c (2.5 mg/kg/day i.p.) for 18 days. Aortas and carotid arteries were removed at sacrifice for mechanical and structural analysis. (A) Picro-Sirius Red staining of aorta and carotid artery sections (B) Determination of soluble collagen content in aorta and carotid arteries by Picro-Sirius Red-based assay. Stress-strain curves (C,E), elastic modulus-stress lines (D,F) and the slope of the elastic modulus-stress lines (G,H) were calculated. Data is presented as mean±SEM. *, p<0.05 vs. NT; #, p<0.05 vs. L-NAME. N≥4 per group; 2-5 segments of the thoracic aorta were analyzed per animal. […]
Vessels were mounted on a steel wire myograph and incubated in Ca^2±-free Hank's Basic Salt Solution containing 100 μM sodium nitroprusside to ensure maximum relaxation. […] Images of the vessels at each incremental tension were captured and lumen diameters were measured with ImageJ software. Circumferential stress (a) was calculated as F/tl, where F is the tension in the vessel wall, t is the radial thickness of the vessel wall and 1 is the axial length of the aortic ring. Circumferential strain (c) was calculated as (D−D0)/D0 where D is the lumen diameter at a given tension and D0 is the initial diameter under maximally relaxed conditions. […]

[2] = tested on: GRP78, GRP94 and PDI; assay: Western blot of ER chaperone / ER stress marker expression in VSMCs; type: cell-based, rat
Procedure: VSMCs were treated with tunicamycin (1 μg/ml) and either 4μ8c (30 μM) or STF-083010 (60 μM) for 6 h or 24 h. (A) Agarose gel for assessment of XBP1 splicing after 6 h of treatment with tunicamycin and densitometric quantification. (B) Western blot for assessment of ER chaperone expression after 24 h tunicamycin treatment with or without inhibition of IRE1α by 4μ8c. Data is presented as mean±SEM. *, p<0.05 vs. Vehicle; #, p<0.05 vs. Tm.
VSMCs were cultured in DMEM/F12 containing 1% FBS. Confluent cells were treated with L-ascorbic acid-2-phosphate (100 μg/ml) and either TGF-β1 (5 ng/ml) or Ang II (1 μM). (A) Agarose gel for assessment of TGF-β1-induced XBP1 splicing in VSMCs after 24 h. (B) Picro-Sirius Red assay for measurement of collagen deposition induced by combined TGF-β1 and AA2P treatment after 72 h, and inhibition by 4μ8c and STF-083010. (C) Western blot for assessment of collagen chaperone expression after treatment of TGF-β1 and 4μ8c for 48 h. *, p<0.05. (D) Measurement of Ang II-induced collagen production and inhibition by 4μ8c and STF-083010 after 72 h.
VSMCs were isolated from the aortas of 5-week old WKY rats using the explant method^29. The thoracic aorta was removed from the animal and placed in ice-cold 5× Antibiotics-Antimycotics solution (ThermoFisher). The adventitia was gently removed and the aorta was cut longitudinally. The endothelial layer was removed by gentle scraping with forceps. The aorta was cut into 3 mm^2 squares and placed on a 6 well plate in DMEM/F12 medium containing 10% fetal bovine serum (FBS). Explants were incubated undisturbed in a 5% CO2 incubator at 37° C. for 1 week and then passaged. […]
Cells were lysed in 1× Laemmli buffer and protein content was quantified using the BioRad DC Protein Assay (BioRad, Mississauga, Canada). […]

Cc1cc(=O)oc2c(C=O)c(O)ccc12 [4μ8c, 7-Hydroxy-4-methyl-2-oxo-2H-chromene-8-carbaldehyde]
slope of the elastic modulus-stress line, carotid artery [1]: 14.42±0.59 | slope of the incremental elastic modulus versus stress line, aorta [1]: 3.970±0.129 | elevated expression levels of ER stress markers GRP78, GRP94 and PDI ([2]; 24 h tunicamycin treatment, FIG. 1B): reduced | TGF-β1-increased expression of collagen chaperones and ER stress markers GRP78, GRP94 and PDI ([2]; TGF-β1 48 h, FIG. 2C): lowered

Source: patent publication US20190038597A1, “PREVENTION OF VASCULAR AND CARDIAC FIBROSIS VIA IRE1ALPHA INHIBITION” (McMaster University, priority 2017, published 2019)
